Results as given in US20200296971A1, “COMPOSITIONS AND METHODS FOR DISPERSING BIOFILMS” (Texas State University, priority 2016, published 2020).
Like-named read-outs stand apart in the source and are kept apart here.

What was measured:
[1] = test system: monoculture biofilm of Chromobacterium violaceum; details: 0.5% boric acid, 2 hours, lightly shaken
Procedure: Test of application: A 0.5% boric acid was injected into a bioreactor containing a monoculture biofilm of Chromobacterium violaceum. The bioreactor was left for 2 hours and lightly shaken.

other organisms = details: FIG. 3
P. aeruginosa PAO-1 = details: Luria Broth, R2A broth, Davis minimal media with 0, 0.5, 1.0, 1.5% boric acid, FIG. 3
Procedure: (§1) In most experiments, cultures were grown in 96-well polystyrene microtiter plates as this allowed different growth media and replicates to be tested using an automated plate reader. Growth of suspended (planktonic) bacteria could be measured by the turbidity in the individual microtiter plate chambers (referred to as wells). […] To test for dispersion, the planktonic populations and growth media were removed and replaced with water containing various concentrations of the test compound. Dispersion was observed by an increase in turbidity (due to release of bacteria from biofilms) over 20 minutes.

river water biofilm = details: 0.5% boric acid, 60 seconds, FIG. 2B
Procedure: To visualize biofilm dispersion a water sample from the sampling site was collected. A microscope slide was placed in 30 ml of river water to cultivate a biofilm. The biofilm was then viewed under a dark field microscope and a 0.5% concentration of boric acid was applied and left for 60 seconds. FIG. 2A depicts a photograph of a microscope slide of river water with biofilms.

[2] = test system: Biofilms from a nearby river; details: river biofilm on stone, 5 minutes exposure, tested 0%, 0.25%, 0.5%, 1%, 2%, 3%
Procedure: Biofilms are described on the surface of small (15 mm×15 mm) stone.
Biofilms were exposed to various concentrations of Boric Acid. The concentrations used were 0%, 0.25%, 0.5%, 1%, 2%, 3%.
One stone was used per concentration and was measured and weighed for similarity. Each stone was rinsed with sterile H2O to remove any planktonic (not attached to biofilm) bacteria. Each stone was exposed to a known concentration for a time period of 5 minutes and then removed and placed into a separate vial containing 9 ml of sterile water. The vial with after treatment stone in sterile water was then sonicated for 60 seconds to remove any remaining biofilm to be quantified. Sonication served as a mechanical removal for any remaining biofilm.
Media was then placed in 30 C for 48 hrs and growth was quantified through counting colonies.

P. aeruginosa biofilms [3] = details: 24 h at 37 C
Procedure: as §1
Experiments were conducted in order to examine the ability of P. aeruginosa biofilms grown on different growth media to be dispersed by boric acid. Here, bacteria were grown for 24 h at 37 C on an orbital shaking plate in a microtiter plate. The media was removed and the adherent P. aeruginosa biofilms were exposed to boric acid, placed in a plate reader and turbidity measured following agitation.

P. aeruginosa biofilms [4] = test system: P. aeruginosa biofilms
Procedure: P. aeruginosa was grown as planktonic and biofilm populations in different growth media for 48-120 h. Antimicrobial agents were tested in different boric acid concentrations. Boric acid controls lacked the antimicrobial compounds. Initial planktonic growth and dispersion were measured as described previously. After dispersion, the disinfectant and boric acid compounds were removed, replaced with sterile growth medium, and growth monitored by being placed into the plate reader and monitoring an increase of turbidity over an 18-36 h period.
Experiments were conducted in order to determine the ability of boric acid to enhance the antimicrobial action of betadine (poly(vinyl pyrrolidone) iodine). Betadine is commonly used as a disinfectant in clinical environments and the low concentration used (0.02% (w/v)) was chosen based on previous work as it has partial biofilm effectiveness. P. aeruginosa biofilms were grown for 2 and 5 days suspended above a shaking water bath. […] The media used consisted of artificial urine and artificial urine supplemented with 2 mM glucose (reflecting average urine chemistry in normal and diabetic patients). Davis minimal media (MM) and Luria-Bertani broth (LB) were used as representative minimal and rich media. Different biofilm incubation times were used as it is known that biofilm susceptibility to dispersion can increase with biofilm age.
The testing protocol involved the use of a 96-well microtiter plate and a programmable plate reader (Biotek Instruments). The plate reader was programmed for incubation at 37 C and would agitate the plate for 15 seconds prior to taking an absorbance reading of each well. Microtiter wells were partially filled (200 μl) with sterile growth media, then were inoculated with 2 μl of an overnight bacterial culture suspension. For each media and disinfection combination there were a minimum of two replicates as well as uninoculated wells (media without bacteria) to monitor contamination. The microtiter plates were covered with a lid and the sides sealed with Parafilm™ to prevent contamination. Plates were placed on a rack (above the water level) in a water bath, and incubated with shaking (150 rpm) for 2 and 5 days. Testing consisted of removing a plate from the incubator, placing in the plate reader for 30 minutes (allowing for evaporation of humidity) and reading the turbidity (evidence of planktonic growth). Culture media and planktonic cells were removed from the wells and 200-μl dispersant solution containing a mixture of boric acid and 0.02% (w/v) betadine suspended in PBS. Betadine was absent in the control samples. The microtiter plate was placed in the plate reader for 30 minutes (allowing for evaporation of humidity) and turbidity measurements taken (increased turbidity was evidence of biofilm dispersion). To measure biofilm survival, the plates were removed from the plate reader, the dispersant liquid removed, and replaced with sterile LB growth media. The plates were then placed in the plate reader and growth measured (increased turbidity) over a minimum 18 h period.

P. aeruginosa biofilms [5] = details: FIG. 4, line B
From the text: To further study the mechanisms of boric acid-induced dispersion a collaboration with Dr. Karin Sauer, Binghamton University was initiated. […] FIG. 4 depicts a bar graph summarizing the results of experiments directed towards determining the ability of boric acid to disperse P. aeruginosa biofilms. The line designated as B is boric acid, D represents a positive control for dispersion and E a negative control.

For OB(O)O [boric acid], the “removal of visible biofilm from bioreactor” value [1] was “All visible biofilm was removed”, the “concentration at which bacterial growth began to be inhibited” value (other organisms) was ≥ 1.5 % (w/v) and the “ability to grow in the presence of boric acid” value (P. aeruginosa PAO-1) was “grew in the presence of boric acid”. The “biofilm dispersion seen under dark field microscope” value (river water biofilm) was “dispersed”, the “concentration producing the highest percent release of biofilm” value [2] was 0.5 % (w/v) and the “boric acid concentration at which increased turbidity (evidence of dispersion) was seen” value (P. aeruginosa biofilms [3]; Davis Minimal Media-grown biofilms) was 1.0%. For the same compound, the “dispersion (increased turbidity)” value (P. aeruginosa biofilms [3]; LB-grown biofilms) was “no observable dispersion”, the “boric acid concentration at which increased turbidity (evidence of dispersion) was seen” value (P. aeruginosa biofilms [3]; R2A-grown biofilms) was 0.5% and the “enhancement of betadine activity against older biofilms” value (P. aeruginosa biofilms [4]; 5-day old PAO-1 biofilms grown in artificial urine, FIGS. 13 and 14, preliminary) was “does enhance the activity of betadine”. For the same compound, the regrowth after treatment (P. aeruginosa biofilms [4]; 2 day old biofilms, artificial urine, boric acid without betadine, FIG. 6) was “growth did occur”, the “effect of boric acid on betadine action” value (P. aeruginosa biofilms [4]; artificial urine with glucose, FIG. 7) was “no effect” and the boric acid-induced toxicity (P. aeruginosa biofilms [4]; at the concentrations listed, preliminary results) was “low level of boric acid-induced toxicity”. For the same compound, the “betadine activity against biofilms in the presence of boric acid” value (P. aeruginosa biofilms [4]; two-day biofilms, Davis Minimal Media and Luria-Bertani broth, FIGS. 9 and 11) was “enhanced”, the “killing by boric acid treatment alone” value (P. aeruginosa biofilms [4]; two-day biofilms, Davis Minimal Media and Luria-Bertani broth, FIGS. 10 and 12) was “did not kill P. aeruginosa” and the “ability to disperse biofilms in flow cell” value (P. aeruginosa biofilms [5]) was “verified the ability of boric acid to disperse P. aeruginosa biofilms”.
